Measurements reported in patent US20180192601A1, “Composition and Process for Producing Plants Using Anthers of Jatropha Species” (Reliance Industries Limited, priority 2017, published 2018).

Assays:
Format in all cases: cell-based, Jatropha Curcas
[1] = system: anthers of Jatropha; assay: Callus induction (callus formation) from anthers on callus induction composition
Description: The flower bud of about 2.5 mm were selected for excision of anthers. The flower buds were blot dried with several layers of sterile filter papers to remove excess moisture.
The anthers were excised from unopened flower buds in the laminar air flow (sterile hood) under aseptic conditions.
About 10 to 12 anthers were inoculated into culture tubes comprising the composition of the present disclosure for callus induction. The inoculated culture tubes were incubated in dark at a temperature of about 25±1° C. for a period ranging from about 25 days to 30 days. The culture tubes were replenished with the composition every three weeks for high frequency induction of callus. […]

[2] = system: matured embryoids or small plantlets of Jatropha; assay: Embryo germination and rooting of seedling
Description: The matured embryoids with the photoperiod of 16 hrs light and 8 hrs dark or small plantlets were transferred to the composition of the present disclosure and incubated at temperature ranging from about 25° C. to 28° C. for period of about 25 days to 30 days, for germination, for proliferation of roots and further elongation of shoots.
Table 4 illustrates the effect of different concentrations of IBA individually and in combination of with various concentrations of phloroglucinol and GA3 on embryo germination and rooting of seedling. Among the tested concentrations, IBA-0.1 mg/l, phloroglucinol—0.5 mg/l; Gibberellic acid-0.5 mg/l observed to be effective in producing more number of roots (6 roots/shoot) in 80% of the cultures; employing the composition comprising 100 ml of MS macro elements (10× concentration), about 25 ml of MS micro elements (100× concentration) about 10 ml of MS vitamins (200× concentration); citric aicd—40 mg/l; PVP—250 mg/l; Ascorbic acid—55 mg/l; myo inositol—100 mg/L; sucrose 20 g/L. Phytagel 1.5 g/l.

[3] = system: embryogenic calli of Jatropha anthers; assay: Plant regeneration from embryogenic calli of Jatropha anthers
Description: The calli of size ranging from about 0.5 cm to 1.0 cm (breadth) were divided into small pieces and inoculated in the culture tubes comprising the composition of the present disclosure for induction of somatic embryogenesis.
The culture tubes showing the developed somatic embryoids were transferred to composition of the present disclosure for somatic embryo maturation and incubated in light culture room for about 16 hours under photoperiod (provided by cool while fluorescent lamp) and under dark for about 8 hours at a temperature of about 25±1° C. This process is continued until somatic embryos get matured and small shoots are visible.
Regeneration of embryogenic calli or embryoids was stimulated and maintained on various combinations of MSB media. Regenerated shoots were transferred to rooting medium for root development.
Table 3 illustrates the effect of different concentration of IBA individually and in combination with BAP and Kinetin of different concentrations on plant regeneration from embryogenic calli of Jatropha anthers.

With `O=C(O)COc1ccc(Cl)cc1Cl` [2,4-D, 2,4-dichloro phenoxy acetic acid] the “Callus formation (%)” value ([1]; 2,4-D 0.5 mg/L) was 2%, the “Callus formation (%)” value ([1]; 2,4-D 1 mg/L) was 2% and the “Callus formation (%)” value ([1]; 2,4-D 2 mg/L) was 10%. The “Callus formation (%)” value ([1]; 2,4-D 3 mg/L) was 20%, the “Callus formation (%)” value ([1]; 2,4-D 4 mg/L) was 35% and the “Callus formation (%)” value ([1]; 2,4-D 5 mg/L) was 45%.

With indole butyric acid [IBA] the “% of Embryos Germinated” value ([2]; IBA 0.1 mg/L) was 0.0%, the No. of roots/shoot ([2]; IBA 0.1 mg/L) was 0 roots/shoot and the “% of Embryos Germinated” value ([2]; IBA 0.2 mg/L) was 0.0%. For the same compound, the No. of roots/shoot ([2]; IBA 0.2 mg/L) was 0 roots/shoot, the “% of Embryos Germinated” value ([2]; IBA 1.0 mg/L) was 0.0% and the No. of roots/shoot ([2]; IBA 1.0 mg/L) was 0 roots/shoot. The “% of Embryos Germinated” value ([2]; IBA 2.0 mg/L) was 0.0%, the No. of roots/shoot ([2]; IBA 2.0 mg/L) was 0 roots/shoot and the “% of Embryos Germinated” value ([2]; IBA 5.0 mg/L) was 0.0%. For the same compound, the No. of roots/shoot ([2]; IBA 5.0 mg/L) was 0 roots/shoot, the “% of cultures showed regeneration” value ([3]; IBA 0.1 mg/L) was 0.0% and the “No of Plants/explant” value ([3]; IBA 0.1 mg/L) was 0 Plants/explant. The “% of cultures showed regeneration” value ([3]; IBA 0.2 mg/L) was 0.0%, the “No of Plants/explant” value ([3]; IBA 0.2 mg/L) was 0 Plants/explant and the “% of cultures showed regeneration” value ([3]; IBA 1.0 mg/L) was 0.0%. For the same compound, the “No of Plants/explant” value ([3]; IBA 1.0 mg/L) was 0 Plants/explant, the “% of cultures showed regeneration” value ([3]; IBA 2.0 mg/L) was 0.0% and the “No of Plants/explant” value ([3]; IBA 2.0 mg/L) was 0 Plants/explant. For the same compound, the “% of cultures showed regeneration” value ([3]; IBA 5.0 mg/L) was 0.0% and the “No of Plants/explant” value ([3]; IBA 5.0 mg/L) was 0 Plants/explant.
